In data set [1] the test system is restless legs syndrome. The data set can be described thus: 12-week open label pilot trial: physician's rating (Clinical Global Impressions). In kind it is in vivo. As to conditions: under cabergoline, 9 patients. The protocol:
Following a 2-week baseline period, all patients were treated with cabergoline in an open trial for 12 weeks. Apart from levodopa, patients had to stop taking any medication known to have positive or negative effect on RLS two weeks before baseline (i.e., other dopamine agonists, benzodiazepines, opioids or other psychotropic agents). Patients who were on levodopa therapy were allowed to either stop levodopa prior to study entry or to continue, taper or discontinue levodopa during the study. To prevent well known peripheral dopaminergic side-effects such as nausea, vomiting, vertigo and arterial hypotension domperidone (not available in the United States) was comedicated initially and also tapered if possible. […] Neurological case history, examination, electrocardiogramm, chest x-ray and polysomnography were performed to ensure that selection criteria were fulfilled. A two-night PSG (including one night of adaptation) was performed to evaluate the diagnosis and inclusion/exclusion criteria regardless if patients were on or off levodopa. After a 12-week treatment period patients were studied again for one night in the sleep laboratory. […] In addition patients were monitored by phone calls to note any adverse events and to determine whether to increase the dosage of the study drug, to decrease levodopa and to decrease domperidone. […]

In data set [2] the test system is restless legs syndrome. The data set can be described thus: 12-week open label pilot trial: patients' subjective ratings and sleep diaries. In kind it is in vivo. The protocol: (§1) Following a 2-week baseline period, all patients were treated with cabergoline in an open trial for 12 weeks. Apart from levodopa, patients had to stop taking any medication known to have positive or negative effect on RLS two weeks before baseline (i.e., other dopamine agonists, benzodiazepines, opioids or other psychotropic agents). Patients who were on levodopa therapy were allowed to either stop levodopa prior to study entry or to continue, taper or discontinue levodopa during the study. To prevent well known peripheral dopaminergic side-effects such as nausea, vomiting, vertigo and arterial hypotension domperidone (not available in the United States) was comedicated initially and also tapered if possible. […] Neurological case history, examination, electrocardiogramm, chest x-ray and polysomnography were performed to ensure that selection criteria were fulfilled. A two-night PSG (including one night of adaptation) was performed to evaluate the diagnosis and inclusion/exclusion criteria regardless if patients were on or off levodopa. After a 12-week treatment period patients were studied again for one night in the sleep laboratory. Subjective ratings were obtained at baseline, week 4, week 8 and at the endpoint after 12 weeks. In addition patients were monitored by phone calls to note any adverse events and to determine whether to increase the dosage of the study drug, to decrease levodopa and to decrease domperidone. The time schedule of phone calls was variable and the frequency mostly dependent on the presence of simultaneous levodopa therapy.
Dosing. Study medication was available in tablets containing 0.5 mg, 1 mg or 2 mg Cabergoline (Cabaseril®, Pharmacia & Upjohn, Erlangen, Germany). Medication was taken 2 hours prior to bedtime. Initial therapy consisted of one 0.5 mg tablet. […] The increased dose could be decreased again if necessary. All patients were initially comedicated with domperidone 20 mg t.i.d. which could be tapered and stopped if possible. Subjects who were pretreated with levodopa were asked to decrease levodopa simultaneously if possible.
Subjective ratings. After each night of recording and at each visit at week 2 and 4, patients rated the severity of illness (normal to extremely ill), the therapeutic effects by rating their global improvements by use of the Patients Global Impressions (general condition very much worse to very much better), the severity of RLS symptoms during the time of falling asleep, during the night and during the day (scale: 0 = not present to 10 = very strong) and sleep satisfaction (very unsatisfied to very satisfied). In addition patients rated their quality of life, concerning well being and complaints during the previous week, using modified 50-mm Hamburger Visual Analogue Scale. Patients also filled in a sleep diary at each study visit rating the following symptoms: global assessment of sleep (very bad to very good night), sleep latency, sleep time, frequency of awakenings and urge to move the legs at time falling asleep, during the night and during the day (scale: 0 = not present to 10 = very strong).

The test system of data set [3] is restless legs syndrome. As to the kind of experiment: 12-week open label pilot trial of cabergoline in RLS patients: polysomnography. In kind it is in vivo. The protocol:
In a 12-week open label pilot trial, the effects of a single evening cabergoline-dose on symptoms of RLS were investigated in 9 patients and the results presented here. See also, Stiasny K., Oertel W.H., Schüler P. (1998). Cabergoline in RLS, ENS, Nice, Abstract.
Efficacy was assessed by polysomnography and subjective ratings. All patients previously had experienced partial benefit of a levodopa therapy (either standard or standard and slow release) and in part developed augmentation under levodopa therapy. At study entry all patients were comedicated with domperidone (20 mg TID) and five were still under levodopa therapy (400-800 mg). At the endpoint all patients were on cabergoline monotherapy (mean dose 2.1 mg, range 1 to 4 mg). Domperidone was stopped in all patients due to excellent tolerability. […] Total sleep time was prolonged, sleep latency shortened and sleep efficiency increased. All patients reported significant relief or became free of RLS symptoms.
as §1
Inclusion criteria. Patients were included if they fulfilled the minimal diagnostic criteria according to the International RLS Study Group. After rating clinical symptoms at baseline, patients were referred to polysomnography without any RLS specific treatment other than levodopa. Patients were included if they had more than five PLM per hour of time-in-bed (PLM index) and a sleep efficiency index (total sleep time per hour time-in-bed) of less than 85%.
Exclusion criteria. Patients with signs of any other sleep disorder on PSG, especially sleep apnea syndrome (respiratory disturbances index > 5 per hour total sleep time), were excluded. Subjects receiving neuroleptic, antidepressant or other psychotropic medications or with any severe additional illness (with special consideration to pulmonary fibrosis) or drug abuse were also excluded. […]

Data set [4] in a line: Half-life and duration of action. As to conditions: as stated by the applicant, no method given. In kind it is in vivo.
Data set [5] deals with restless legs syndrome. The data set can be described thus: 12-week open label pilot trial: safety and augmentation. In kind it is in vivo, patients. How it is done: as §1
Safety. Safety of Cabergoline was assessed to the type and frequency of adverse event, clinically significant changes in laboratory data or ECG and premature discontinuation of study participation. Adverse events were classified as serious versus nonserious and characterized by intensity, relationship to drug treatment, frequency, course and therapeutic intervention.

The next data set relates to restless leg syndrome. As to conditions: in vivo; cited from earlier work.
Data set [6] deals with restless legs syndrome and periodic leg movements in sleep. Conditions: cited from earlier work; for patients who responded: consecutive series of patients.
Data set [7] relates to RLS. Conditions: treatment of RLS; quote from www.rls.org, March 1999; cited from earlier work.
Data set [8] relates to RLS. As to conditions: cited from earlier work.

Structures can show the parent of a compound that is named as a salt.

What is called half-life is the time in which the quantity being followed falls by half. On to `C=CCN1C[C@H](C(=O)N(CCCN(C)C)C(=O)NCC)C[C@@H]2c3cccc4[nH]cc(c34)C[C@H]21` [cabergoline, 1((6-allylergolin-8β-yl) -carbony.)-1-(3-(dimethylamino)propyl)-3-ethylurea], for which the “Physician's rating of general condition (global improvement, number of patients)” value in the data set on restless legs syndrome [1] was “very much better in 5, much better in 3 and minimally better in 1 patients”. Further, the “relief of RLS symptoms reported by patients” value in the data set with restless legs syndrome [2] (12 weeks, 9 patients) is recorded as “All patients reported a significant relief or became free of RLS symptoms”. Besides, the “severity of illness in PGI (number of patients)” value in the data set with restless legs syndrome [2] (cabergoline monotherapy, 9 patients, baseline extremely (2), very (4) or markedly (3) ill) is given as “normal (5) or borderline (2) in PGI, only two as moderately ill”. Besides, in the data set on restless legs syndrome [2] (compared with baseline), the “quality of life (Hamburger Visual Analogue Scales)” value was “much better than under baseline conditions”. For the same compound, the “sleep satisfaction (number of patients)” value in the data set on restless legs syndrome [2] (endpoint, 9 patients, baseline very (1), markedly (6) or moderately (2) unsatisfied) is 2 were very, 4 markedly, 1 moderately satisfied and only 2 moderately unsatisfied. In the data set on restless legs syndrome [2] (sleep diaries, cabergoline monotherapy, baseline 2.1), the “had to get up” value is given as 0.6 times per night. For the same compound, the “General condition in PGI (number of patients)” value in the data set with restless legs syndrome [2] (under cabergoline, 9 patients) was “very much better (6) or much better (3)”. In addition, the “global quality of the previous night (sleep diaries)” value with restless legs syndrome [2] (zero (very bad) to 10 (very good) scale, endpoint, baseline 3.1) is on record as 6.9. In the data set on restless legs syndrome [3] (Week 12, baseline 51.7 ± 42.3), the PLM arousal stood at 6.4 ± 11.2. The compound further gave a PLM arousal index in the data set with restless legs syndrome [3] (number of PLM arousals per hour total sleep time, Week 12, baseline 10.4 ± 7.8) of 1.0 ± 1.7. Further, the PLM awakening in the data set with restless legs syndrome [3] (number of PLM awakenings, Week 12, baseline 9.6 ± 4.9) stood at 1.0 ± 2.0. The PLM index with restless legs syndrome [3] (number of PLM per hour time in bed, Week 12, baseline 27.7 ± 17.1) turned out to be 3.6 ± 5.3. The “No. Of PLM” value in the data set with restless legs syndrome [3] (total number of PLM during time in bed, Week 12, cabergoline monotherapy, baseline 195.8 ± 109.1) is on record as 26.4 ± 40.2. Also, the half life in data set [4] is greater than 65 h. In [4] (human, in vivo), this compound had a half-life of 65 h. The augmentation under cabergoline entry in the data set on restless legs syndrome [5] (12-week treatment period) is “we did not observe augmentation in our patients”. In the data set with restless legs syndrome [5] (12 weeks), the “laboratory data and ECG” value is given as “No significant changes”. In addition, in the data set on restless legs syndrome [5] (12 weeks, 9 patients), the “adverse events probably related to the study drug, total” value worked out at 8; the “serious side effects and withdrawals” value was “no serious side effects and no patient withdrew from the study”. For the same compound, in the data set on restless legs syndrome [5] (of 9 patients), the “patients reporting adverse events probably related to the study drug” value is recorded as 5 patients. Further, the “reversibility of augmentation evoked by levodopa” value in the data set on restless legs syndrome [5] (patients who had developed augmentation under levodopa) is “reversible under cabergoline in all of our patients”.

In the case of `CC(C)C[C@H]1C(=O)N2CCC[C@H]2[C@]2(O)O[C@](NC(=O)[C@@H]3C=C4c5cccc6[nH]c(Br)c(c56)C[C@H]4N(C)C3)(C(C)C)C(=O)N12` [Bromocriptine], in the data set on restless leg syndrome, the “patients reporting better subjective improvement in restlessness and paresthesia compared to placebo” value is 5 of 6; the side effects reported entry was “transient nasal stuffiness and lightheadedness in one patient”.

Regarding `CCCN1C[C@H](CSC)C[C@@H]2c3cccc4[nH]cc(c34)C[C@H]21` [Pergolide], in data set [6], the patients who responded was 19 of 26. In addition, in [6] (patients treated with pergolide), the “patients who suffered from augmentation” value is listed as 15%. Further, the “patients who had augmentation” value in data set [6] (pergolide patients) is reported as 4 of 26.

Turning to `CCCN1C[C@H](CSC)C[C@@H]2c3cccc4[nH]cc(c34)C[C@H]21` [Permax®, pergolide mesylate], the “people who develop augmentation” value in the data set with RLS [7] is 10%.

Turning to `N[C@@H](Cc1ccc(O)c(O)c1)C(=O)O` [L-dopa], in the data set on RLS [8] (Allen, Earley, Sleep 1996), the “RLS patients with augmentation who required a medication change” value is 50%, the “augmentation in PLMS patients” value is recorded as 31% and the “augmentation in RLS patients” value is given as 82%. Also, in the data set with RLS [8] (of the 22 RLS patients with augmentation), the “RLS patients with augmentation reporting 3 major symptoms of increased severity” value is 100%. In data set [6], the patients who responded was 21 of 51.
